Where two headings read alike, the source gives them in different places.

Test in all cases: biochemical
Design in all cases: KINOMEscan scanMAX competition binding, DNA-tagged kinases, qPCR read-out, percent control at 300 nM

The target of experiment [1] is T1, JAK2(JH1domain-catalytic) (Homo sapiens, UniProt O60674).
T1 construct: JH1domain-catalytic

Experiment [2] deals with GRK4 (Homo sapiens, UniProt P32298).
In experiment [3] the target is PIK3CA(E545K) (Homo sapiens, UniProt P42336, E545K).
Experiment [4] concerns the target ABL2 (Homo sapiens, UniProt P42684).
The target of experiment [5] is ERN1 (Homo sapiens, UniProt O75460).
Experiment [6] addresses T2, BIKE (Homo sapiens, UniProt Q9NSY1).
T2 construct: gene BMP2K

For experiment [7], the target named is PKN1 (Homo sapiens, UniProt Q16512).
For experiment [8], the target named is T3, EPHB2 (Homo sapiens, UniProt P29323).
T3 sequence (P29323 1-1055): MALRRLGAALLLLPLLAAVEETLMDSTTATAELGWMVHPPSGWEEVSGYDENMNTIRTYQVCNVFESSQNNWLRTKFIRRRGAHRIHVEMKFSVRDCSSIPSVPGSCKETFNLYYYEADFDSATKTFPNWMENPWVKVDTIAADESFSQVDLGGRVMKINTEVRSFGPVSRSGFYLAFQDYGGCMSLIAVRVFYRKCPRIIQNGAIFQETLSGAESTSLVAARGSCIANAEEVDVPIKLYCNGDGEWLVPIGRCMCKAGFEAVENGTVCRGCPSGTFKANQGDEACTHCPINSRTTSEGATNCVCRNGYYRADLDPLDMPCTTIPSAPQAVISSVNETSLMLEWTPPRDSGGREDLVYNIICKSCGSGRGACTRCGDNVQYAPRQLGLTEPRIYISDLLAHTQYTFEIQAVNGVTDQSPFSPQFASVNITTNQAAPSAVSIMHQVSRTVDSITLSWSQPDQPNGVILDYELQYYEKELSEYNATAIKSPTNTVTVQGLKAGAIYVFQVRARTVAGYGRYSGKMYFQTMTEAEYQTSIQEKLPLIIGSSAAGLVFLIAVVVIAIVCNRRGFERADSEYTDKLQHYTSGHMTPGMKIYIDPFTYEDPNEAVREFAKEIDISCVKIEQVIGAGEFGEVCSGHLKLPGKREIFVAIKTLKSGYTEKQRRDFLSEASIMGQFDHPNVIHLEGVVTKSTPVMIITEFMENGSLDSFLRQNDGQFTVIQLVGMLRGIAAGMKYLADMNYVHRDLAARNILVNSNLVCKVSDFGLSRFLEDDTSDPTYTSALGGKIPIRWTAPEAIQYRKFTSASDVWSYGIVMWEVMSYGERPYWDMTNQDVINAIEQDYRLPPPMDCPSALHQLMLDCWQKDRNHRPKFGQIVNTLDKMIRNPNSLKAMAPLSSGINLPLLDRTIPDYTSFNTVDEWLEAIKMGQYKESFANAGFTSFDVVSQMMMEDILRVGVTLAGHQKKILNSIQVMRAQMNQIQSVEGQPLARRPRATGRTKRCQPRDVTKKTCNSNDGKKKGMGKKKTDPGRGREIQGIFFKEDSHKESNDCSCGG

The target in experiment [9] is T4, RIPK5 (Homo sapiens, UniProt Q6XUX3).
T4 construct: gene DSTYK
T4 sequence (Q6XUX3 1-929): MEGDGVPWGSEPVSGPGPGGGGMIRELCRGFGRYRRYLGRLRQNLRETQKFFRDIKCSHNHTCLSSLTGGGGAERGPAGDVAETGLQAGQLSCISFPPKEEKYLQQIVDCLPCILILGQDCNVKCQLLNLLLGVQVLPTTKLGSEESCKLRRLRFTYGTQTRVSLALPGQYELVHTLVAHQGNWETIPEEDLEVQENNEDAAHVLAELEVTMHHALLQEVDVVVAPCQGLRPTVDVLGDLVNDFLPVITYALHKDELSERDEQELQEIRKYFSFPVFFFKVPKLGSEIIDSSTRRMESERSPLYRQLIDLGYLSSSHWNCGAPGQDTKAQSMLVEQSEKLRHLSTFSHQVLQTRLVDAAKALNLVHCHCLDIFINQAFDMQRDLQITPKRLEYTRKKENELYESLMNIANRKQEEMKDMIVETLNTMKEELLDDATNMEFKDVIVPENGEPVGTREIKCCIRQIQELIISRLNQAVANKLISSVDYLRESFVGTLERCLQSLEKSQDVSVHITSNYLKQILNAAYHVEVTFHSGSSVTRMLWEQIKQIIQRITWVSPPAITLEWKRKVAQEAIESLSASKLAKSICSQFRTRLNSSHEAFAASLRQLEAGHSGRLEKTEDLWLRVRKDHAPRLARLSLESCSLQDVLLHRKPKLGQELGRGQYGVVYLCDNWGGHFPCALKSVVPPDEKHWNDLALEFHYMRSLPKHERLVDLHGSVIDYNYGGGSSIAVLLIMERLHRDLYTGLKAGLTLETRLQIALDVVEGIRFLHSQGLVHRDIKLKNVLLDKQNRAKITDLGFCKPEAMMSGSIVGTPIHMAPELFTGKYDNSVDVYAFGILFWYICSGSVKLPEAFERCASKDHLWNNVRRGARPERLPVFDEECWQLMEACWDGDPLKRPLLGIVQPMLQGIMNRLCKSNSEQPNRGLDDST

The mark [10] stands for this setting: read-out: Percent control / Acalabrutinib.
Setting [11] is: read-out: Percent control / Ibrutinib.
Where [12] appears, read: read-out: Percent control / Tirabrutinib.
Setting [13] is: read-out: Percent control / Zanubrutinib.

ERN1, sequence (O75460 whole entry): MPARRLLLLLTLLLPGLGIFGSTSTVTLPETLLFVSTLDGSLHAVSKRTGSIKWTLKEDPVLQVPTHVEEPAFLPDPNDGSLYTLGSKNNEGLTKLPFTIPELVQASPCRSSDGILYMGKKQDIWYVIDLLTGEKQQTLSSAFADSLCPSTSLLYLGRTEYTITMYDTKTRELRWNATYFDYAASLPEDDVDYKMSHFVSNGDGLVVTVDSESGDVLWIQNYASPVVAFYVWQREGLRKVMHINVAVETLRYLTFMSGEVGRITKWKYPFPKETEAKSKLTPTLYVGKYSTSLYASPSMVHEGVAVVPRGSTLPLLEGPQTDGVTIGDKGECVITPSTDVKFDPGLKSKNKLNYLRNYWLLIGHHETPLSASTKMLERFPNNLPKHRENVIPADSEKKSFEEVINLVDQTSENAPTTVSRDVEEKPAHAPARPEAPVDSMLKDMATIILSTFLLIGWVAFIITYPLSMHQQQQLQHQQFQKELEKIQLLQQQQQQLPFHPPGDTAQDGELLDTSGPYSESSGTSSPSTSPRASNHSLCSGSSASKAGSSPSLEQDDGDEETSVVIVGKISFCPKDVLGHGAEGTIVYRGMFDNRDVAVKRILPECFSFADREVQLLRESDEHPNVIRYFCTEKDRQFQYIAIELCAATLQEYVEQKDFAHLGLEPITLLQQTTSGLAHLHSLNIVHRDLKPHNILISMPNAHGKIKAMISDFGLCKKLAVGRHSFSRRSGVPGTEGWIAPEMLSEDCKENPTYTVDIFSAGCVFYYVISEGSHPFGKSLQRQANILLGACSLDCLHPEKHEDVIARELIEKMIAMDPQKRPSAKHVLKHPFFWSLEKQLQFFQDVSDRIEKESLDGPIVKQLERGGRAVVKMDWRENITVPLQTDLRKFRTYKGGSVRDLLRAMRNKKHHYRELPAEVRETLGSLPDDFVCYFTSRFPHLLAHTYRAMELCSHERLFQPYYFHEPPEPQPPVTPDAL
GRK4, sequence (P32298 whole entry): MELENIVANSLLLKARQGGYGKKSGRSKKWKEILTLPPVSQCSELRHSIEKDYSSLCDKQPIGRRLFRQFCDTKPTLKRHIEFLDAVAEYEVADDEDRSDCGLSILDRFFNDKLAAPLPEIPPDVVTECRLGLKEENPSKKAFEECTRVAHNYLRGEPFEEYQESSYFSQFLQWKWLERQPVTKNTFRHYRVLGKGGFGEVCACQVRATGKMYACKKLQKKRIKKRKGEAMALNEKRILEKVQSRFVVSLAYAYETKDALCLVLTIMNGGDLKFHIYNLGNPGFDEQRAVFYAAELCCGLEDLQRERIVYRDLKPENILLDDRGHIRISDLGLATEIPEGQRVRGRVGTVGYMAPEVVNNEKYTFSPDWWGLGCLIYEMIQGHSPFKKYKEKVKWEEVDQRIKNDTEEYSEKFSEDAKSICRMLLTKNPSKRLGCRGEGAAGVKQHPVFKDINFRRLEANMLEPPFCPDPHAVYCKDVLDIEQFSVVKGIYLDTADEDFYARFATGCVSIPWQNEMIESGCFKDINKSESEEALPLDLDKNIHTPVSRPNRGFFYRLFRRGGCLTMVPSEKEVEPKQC
PKN1, sequence (Q16512 whole entry): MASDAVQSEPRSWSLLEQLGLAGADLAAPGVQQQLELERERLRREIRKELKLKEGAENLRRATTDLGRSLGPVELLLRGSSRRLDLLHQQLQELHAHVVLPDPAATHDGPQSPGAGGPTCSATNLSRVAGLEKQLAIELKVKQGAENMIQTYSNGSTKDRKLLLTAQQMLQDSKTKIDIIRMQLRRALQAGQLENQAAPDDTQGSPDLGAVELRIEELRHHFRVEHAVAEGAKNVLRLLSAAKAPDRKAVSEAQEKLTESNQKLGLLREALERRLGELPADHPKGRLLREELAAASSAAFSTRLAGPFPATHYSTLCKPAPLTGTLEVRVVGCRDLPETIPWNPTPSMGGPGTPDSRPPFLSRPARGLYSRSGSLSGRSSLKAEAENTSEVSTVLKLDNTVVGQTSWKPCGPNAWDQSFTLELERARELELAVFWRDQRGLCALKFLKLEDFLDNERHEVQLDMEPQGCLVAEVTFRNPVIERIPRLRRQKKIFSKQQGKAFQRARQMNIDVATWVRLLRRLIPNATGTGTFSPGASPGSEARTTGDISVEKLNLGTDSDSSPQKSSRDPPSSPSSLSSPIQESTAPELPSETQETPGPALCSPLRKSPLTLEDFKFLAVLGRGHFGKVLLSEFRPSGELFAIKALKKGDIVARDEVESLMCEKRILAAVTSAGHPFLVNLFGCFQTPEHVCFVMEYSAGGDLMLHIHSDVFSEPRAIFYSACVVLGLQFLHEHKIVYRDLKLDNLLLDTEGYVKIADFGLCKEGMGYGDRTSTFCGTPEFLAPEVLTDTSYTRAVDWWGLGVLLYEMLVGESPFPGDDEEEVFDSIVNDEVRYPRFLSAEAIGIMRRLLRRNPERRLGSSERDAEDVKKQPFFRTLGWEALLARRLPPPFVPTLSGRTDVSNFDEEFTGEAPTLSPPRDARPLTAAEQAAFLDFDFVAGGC
ABL2, sequence (P42684 whole entry): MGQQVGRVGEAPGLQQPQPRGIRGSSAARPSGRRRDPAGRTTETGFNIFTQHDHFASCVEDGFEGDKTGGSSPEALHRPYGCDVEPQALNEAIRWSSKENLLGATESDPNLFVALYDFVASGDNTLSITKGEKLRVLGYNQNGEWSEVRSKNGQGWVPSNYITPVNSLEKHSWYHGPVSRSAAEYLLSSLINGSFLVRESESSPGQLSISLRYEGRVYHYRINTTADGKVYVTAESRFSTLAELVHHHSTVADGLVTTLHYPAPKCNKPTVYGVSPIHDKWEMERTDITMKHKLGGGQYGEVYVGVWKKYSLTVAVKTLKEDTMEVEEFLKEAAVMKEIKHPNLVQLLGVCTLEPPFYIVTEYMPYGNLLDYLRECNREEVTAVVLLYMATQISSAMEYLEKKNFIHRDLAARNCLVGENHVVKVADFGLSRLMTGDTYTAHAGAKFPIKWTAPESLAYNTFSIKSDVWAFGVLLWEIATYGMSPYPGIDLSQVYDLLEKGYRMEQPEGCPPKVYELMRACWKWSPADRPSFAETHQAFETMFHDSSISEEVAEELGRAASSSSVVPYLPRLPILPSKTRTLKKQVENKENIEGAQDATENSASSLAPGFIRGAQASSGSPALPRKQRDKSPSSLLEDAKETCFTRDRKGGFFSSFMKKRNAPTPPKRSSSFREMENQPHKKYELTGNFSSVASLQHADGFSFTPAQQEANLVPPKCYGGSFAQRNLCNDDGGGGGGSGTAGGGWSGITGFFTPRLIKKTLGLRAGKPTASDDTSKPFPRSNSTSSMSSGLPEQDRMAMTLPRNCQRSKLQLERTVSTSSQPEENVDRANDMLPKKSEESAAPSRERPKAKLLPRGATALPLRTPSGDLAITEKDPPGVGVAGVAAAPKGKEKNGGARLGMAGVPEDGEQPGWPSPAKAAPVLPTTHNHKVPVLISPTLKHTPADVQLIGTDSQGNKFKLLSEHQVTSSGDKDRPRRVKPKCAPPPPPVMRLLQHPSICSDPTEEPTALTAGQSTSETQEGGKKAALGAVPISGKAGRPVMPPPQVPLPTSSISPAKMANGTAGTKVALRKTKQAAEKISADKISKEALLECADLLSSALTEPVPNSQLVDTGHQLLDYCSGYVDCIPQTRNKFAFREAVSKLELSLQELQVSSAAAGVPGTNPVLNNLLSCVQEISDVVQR
PIK3CA(E545K), sequence (P42336 whole entry E545K): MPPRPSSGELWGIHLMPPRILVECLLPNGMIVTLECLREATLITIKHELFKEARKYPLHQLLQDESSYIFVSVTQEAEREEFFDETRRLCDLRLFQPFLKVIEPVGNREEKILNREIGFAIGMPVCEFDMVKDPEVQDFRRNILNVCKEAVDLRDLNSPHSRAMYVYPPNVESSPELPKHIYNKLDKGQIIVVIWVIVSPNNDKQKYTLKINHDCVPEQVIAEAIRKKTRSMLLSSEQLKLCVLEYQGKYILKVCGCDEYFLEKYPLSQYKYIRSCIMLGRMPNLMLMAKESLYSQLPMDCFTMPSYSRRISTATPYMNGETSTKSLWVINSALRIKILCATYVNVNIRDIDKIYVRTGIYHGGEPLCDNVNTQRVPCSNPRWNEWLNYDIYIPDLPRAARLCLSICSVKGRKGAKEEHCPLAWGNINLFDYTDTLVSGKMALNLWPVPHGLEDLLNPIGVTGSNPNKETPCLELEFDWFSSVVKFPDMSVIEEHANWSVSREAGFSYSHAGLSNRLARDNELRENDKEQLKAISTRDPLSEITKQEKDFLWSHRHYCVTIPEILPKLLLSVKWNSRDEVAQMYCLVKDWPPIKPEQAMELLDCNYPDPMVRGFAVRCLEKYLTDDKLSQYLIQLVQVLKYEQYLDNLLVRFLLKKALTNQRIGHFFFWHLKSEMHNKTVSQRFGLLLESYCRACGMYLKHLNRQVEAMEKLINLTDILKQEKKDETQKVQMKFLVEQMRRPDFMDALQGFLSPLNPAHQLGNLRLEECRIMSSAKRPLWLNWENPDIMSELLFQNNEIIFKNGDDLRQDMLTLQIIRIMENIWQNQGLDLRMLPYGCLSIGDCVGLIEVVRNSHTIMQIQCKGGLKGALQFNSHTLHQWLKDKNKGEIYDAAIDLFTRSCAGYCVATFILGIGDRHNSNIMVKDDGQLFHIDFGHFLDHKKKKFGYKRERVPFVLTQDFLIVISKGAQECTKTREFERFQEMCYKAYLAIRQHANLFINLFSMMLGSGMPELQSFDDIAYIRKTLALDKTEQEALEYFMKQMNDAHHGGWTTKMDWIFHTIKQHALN

Consider `CC#CC(=O)N1CCC[C@H]1c1nc(-c2ccc(C(=O)Nc3ccccn3)cc2)c2c(N)nccn12` [Acalabrutinib], for which the remaining binding at 0.3 µM in [1] (setting [10]) turned out to be 85%; in experiment [2] (setting [10]), 89%; in experiment [3] (setting [10]), 99%; in [4] (setting [10]), 97%; in [5] (setting [10]), 96%; in experiment [6] (setting [10]) it was 94%. The remaining binding at 0.3 µM in [7] (setting [10]) is 81%; in experiment [8] (setting [10]), 89%.

Take `C=CC(=O)N1CCC[C@@H](n2nc(-c3ccc(Oc4ccccc4)cc3)c3c(N)ncnc32)C1` [Ibrutinib]: the remaining binding at 0.3 µM came to 75% in experiment [3] (setting [11]); 82% in experiment [4] (setting [11]); 89% in experiment [5] (setting [11]); 66% in [6] (setting [11]); 47% in experiment [9] (setting [11]).

As to `CC#CC(=O)N1CC[C@@H](n2c(=O)n(-c3ccc(Oc4ccccc4)cc3)c3c(N)ncnc32)C1` [Tirabrutinib], the remaining binding at 0.3 µM in [1] (setting [12]) was 77%; in [2] (setting [12]) it was 74%; in [3] (setting [12]), 78%; in experiment [5] (setting [12]), 87%; in experiment [6] (setting [12]), 88%; in experiment [9] (setting [12]), 93%. Further, the remaining binding at 0.3 µM in experiment [7] (setting [12]) was determined as 99%; in [8] (setting [12]), 87%.

As to `C=CC(=O)N1CCC([C@@H]2CCNc3c(C(N)=O)c(-c4ccc(Oc5ccccc5)cc4)nn32)CC1` [Zanubrutinib], the remaining binding at 0.3 µM in [1] (setting [13]) was found to be 96%; in experiment [2] (setting [13]), 85%; in [4] (setting [13]), 77%; in experiment [5] (setting [13]), 100%; in [9] (setting [13]), 100%; in experiment [7] (setting [13]), 100%. In addition, the remaining binding at 0.3 µM in experiment [8] (setting [13]) is 100%.

Values taken from PMC10004634 (PLOS ONE, 2023).
